Assay results as given in patent US20140249135A1, “PIM KINASE INHIBITORS AND METHODS OF THEIR USE” (NOVARTIS AG, priority 2007, published 2014).
Like-named read-outs stand apart in the source and are kept apart here.

Tests used:
Pim1 kinase = Pim1 kinase (Homo sapiens, UniProt P11309); assay: Pim1 ATP depletion assay; format: biochemical; details: Pim1 ATP depletion assay;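 further: Luciferase-luciferin luminescence readout of residual ATP after PIM1 transfers phosphate to a peptide substrate, 40 µM ATP added, reaction run to roughly half ATP consumption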
Pim2 kinase = Pim2 kinase (Homo sapiens, UniProt Q9P1W9); assay: Pim2 ATP depletion assay; format: biochemical;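 further: Luciferase-based luminescent readout of ATP remaining after PIM2 phosphorylates a BAD peptide, final 5 nM enzyme, 4 µM ATP, 10 µM peptide, 2.5% DMSO, run to roughly half ATP consumption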
Pim3 kinase = Pim3 kinase (Homo sapiens, UniProt Q86V86); assay: Pim3 ATP depletion assay; format: biochemical
KDR kinase = KDR kinase (Homo sapiens, UniProt P35968); assay: KDR AlphaScreen assay; details: KDR IC50 (μM)
[1] = biological target: T1, human full length PKCE enzyme (Homo sapiens, UniProt Q02156); assay: In vitro PKCE assay; format: biochemical; details: 10 nM enzyme, 40 uM peptide substrate, 20 uM ATP, KinaseGlo Plus readout; read-out: PKCε IC50
T1 construct: human full length PKCE enzyme purchased from InVitrogen; purchased InVitrogen
T1 sequence (Q02156 1-737): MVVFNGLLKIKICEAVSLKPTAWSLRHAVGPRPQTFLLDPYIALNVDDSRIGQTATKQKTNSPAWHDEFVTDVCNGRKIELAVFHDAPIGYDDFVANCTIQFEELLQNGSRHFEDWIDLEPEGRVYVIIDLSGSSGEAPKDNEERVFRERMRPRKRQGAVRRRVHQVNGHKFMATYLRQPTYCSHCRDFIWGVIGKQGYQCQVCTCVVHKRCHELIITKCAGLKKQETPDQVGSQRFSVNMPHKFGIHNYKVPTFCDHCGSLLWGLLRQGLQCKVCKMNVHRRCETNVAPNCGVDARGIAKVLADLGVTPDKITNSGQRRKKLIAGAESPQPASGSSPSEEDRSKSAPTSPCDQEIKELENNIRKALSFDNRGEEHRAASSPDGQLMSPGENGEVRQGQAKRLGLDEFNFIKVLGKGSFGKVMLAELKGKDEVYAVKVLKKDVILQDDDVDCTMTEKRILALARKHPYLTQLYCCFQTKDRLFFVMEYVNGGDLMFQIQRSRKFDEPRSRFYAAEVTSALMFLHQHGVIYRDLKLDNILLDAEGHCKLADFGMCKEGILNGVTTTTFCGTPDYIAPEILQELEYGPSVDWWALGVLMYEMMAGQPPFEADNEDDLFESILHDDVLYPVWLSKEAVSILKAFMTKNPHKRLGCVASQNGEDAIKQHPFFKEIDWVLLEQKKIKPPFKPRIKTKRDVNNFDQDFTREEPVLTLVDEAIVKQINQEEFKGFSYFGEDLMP

Sequence of Pim2 kinase (Q9P1W9 whole entry): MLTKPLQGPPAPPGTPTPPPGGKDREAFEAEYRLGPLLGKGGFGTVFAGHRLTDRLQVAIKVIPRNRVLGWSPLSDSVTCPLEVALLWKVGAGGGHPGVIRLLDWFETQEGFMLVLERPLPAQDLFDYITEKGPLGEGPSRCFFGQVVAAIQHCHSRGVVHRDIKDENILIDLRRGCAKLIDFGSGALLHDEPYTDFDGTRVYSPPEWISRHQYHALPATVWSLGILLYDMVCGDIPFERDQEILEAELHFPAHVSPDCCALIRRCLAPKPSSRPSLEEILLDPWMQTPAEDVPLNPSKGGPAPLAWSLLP
Sequence of KDR kinase (P35968 20-1356): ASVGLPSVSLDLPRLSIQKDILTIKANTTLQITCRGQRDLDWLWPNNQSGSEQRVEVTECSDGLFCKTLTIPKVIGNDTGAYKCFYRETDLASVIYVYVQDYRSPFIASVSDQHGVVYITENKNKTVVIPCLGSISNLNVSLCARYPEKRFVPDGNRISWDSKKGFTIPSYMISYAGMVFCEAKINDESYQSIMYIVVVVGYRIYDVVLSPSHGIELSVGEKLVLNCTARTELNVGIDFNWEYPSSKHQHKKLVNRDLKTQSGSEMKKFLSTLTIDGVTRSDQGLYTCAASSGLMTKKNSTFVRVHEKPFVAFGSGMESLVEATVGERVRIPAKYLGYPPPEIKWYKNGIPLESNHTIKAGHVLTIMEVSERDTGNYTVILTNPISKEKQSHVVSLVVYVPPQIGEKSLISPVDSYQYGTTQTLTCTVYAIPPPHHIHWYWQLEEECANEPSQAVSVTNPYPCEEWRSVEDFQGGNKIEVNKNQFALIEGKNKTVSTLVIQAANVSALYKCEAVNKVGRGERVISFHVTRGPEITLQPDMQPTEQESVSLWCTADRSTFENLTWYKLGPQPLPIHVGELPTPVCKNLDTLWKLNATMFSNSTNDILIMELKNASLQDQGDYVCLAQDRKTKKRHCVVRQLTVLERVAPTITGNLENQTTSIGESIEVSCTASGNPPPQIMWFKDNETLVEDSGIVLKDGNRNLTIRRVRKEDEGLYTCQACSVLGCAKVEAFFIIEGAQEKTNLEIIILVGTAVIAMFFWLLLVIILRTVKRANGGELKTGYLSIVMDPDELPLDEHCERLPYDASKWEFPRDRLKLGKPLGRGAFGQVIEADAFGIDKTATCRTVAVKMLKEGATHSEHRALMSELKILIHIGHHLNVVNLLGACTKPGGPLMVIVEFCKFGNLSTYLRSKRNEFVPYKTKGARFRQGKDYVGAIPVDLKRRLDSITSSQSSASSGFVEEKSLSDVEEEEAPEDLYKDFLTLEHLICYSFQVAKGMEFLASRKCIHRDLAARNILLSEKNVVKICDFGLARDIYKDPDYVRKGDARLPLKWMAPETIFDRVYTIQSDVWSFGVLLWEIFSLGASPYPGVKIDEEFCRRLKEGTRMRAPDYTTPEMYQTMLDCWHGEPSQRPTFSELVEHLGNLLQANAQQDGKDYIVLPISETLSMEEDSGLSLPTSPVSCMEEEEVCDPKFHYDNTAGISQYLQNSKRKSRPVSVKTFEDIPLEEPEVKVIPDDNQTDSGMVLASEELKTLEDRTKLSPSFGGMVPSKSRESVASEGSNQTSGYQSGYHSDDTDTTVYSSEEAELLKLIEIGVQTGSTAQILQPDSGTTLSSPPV
Sequence of Pim1 kinase (P11309 whole entry): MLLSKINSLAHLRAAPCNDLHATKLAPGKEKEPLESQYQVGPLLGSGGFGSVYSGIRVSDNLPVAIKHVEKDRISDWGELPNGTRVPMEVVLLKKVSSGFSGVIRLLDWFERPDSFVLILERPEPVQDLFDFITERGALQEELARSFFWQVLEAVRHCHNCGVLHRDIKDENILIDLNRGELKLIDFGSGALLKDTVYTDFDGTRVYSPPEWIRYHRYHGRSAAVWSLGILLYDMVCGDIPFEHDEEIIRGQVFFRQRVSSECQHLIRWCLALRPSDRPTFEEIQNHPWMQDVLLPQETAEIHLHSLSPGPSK

| IC50 (Pim1 kinase; read-out: IC50 (μM) PIM1) | IC50 (Pim2 kinase; read-out: IC50 (μM) PIM2) | IC50 (Pim3 kinase; read-out: IC50 (μM) PIM3) | IC50 (KDR kinase) | IC50 [1] | IC50 (Pim1 kinase; read-out: PIM1 IC50) | IC50 (Pim2 kinase; read-out: PIM2 IC50) | IC50 (Pim3 kinase; read-out: PIM3 IC50) | Structure (SMILES) |
| --- | --- | --- | --- | --- | --- | --- | --- | --- |
| < 1 µM | < 1 µM | < 1 µM |  | 10 to 25 µM |  |  |  | Nc1ncc(-c2ccccc2OC(F)(F)F)nc1C(=O)Nc1[nH]c(=O)ncc1N1CCCC(N)C1 (stereo not drawn) [Example 405, 3-amino-6-(2-trifluoro-methoxy-phenyl)-pyrazine-2-carboxylic acid [5-(3-amino-piperidin-1-yl)-2-oxo-2,3-dihydro-pyrimidin-4-yl]-amide] |
| < 1 µM | < 1 µM | < 1 µM | 10 to 25 µM |  |  |  |  | Nc1ccc(-c2scc3c2OCCO3)nc1C(=O)Nc1cnccc1N1CCC[C@H](N)C1 [Example 447, 3-Amino-6-(2,3-dihydro-thieno[3,4-b][1,4]dioxin-5-yl)-pyridine-2-carboxylic acid (3-amino-3,4,5,6-tetrahydro-2H-[1,4′]bipyridinyl-3′-yl)-amide] |
| < 1 µM | < 1 µM | < 1 µM | 10 to 25 µM |  |  |  |  | N[C@H]1CCCN(c2ccncc2NC(=O)c2cccc(-c3ccccc3F)n2)C1 [Example 455, 6-(2-Fluoro-phenyl)-pyridine-2-carboxylic acid (3-amino-3,4,5,6-tetrahydro-2H-[1,4′]bipyridinyl-3′-yl)-amide] |
| < 1 µM | < 1 µM | < 1 µM | 10 to 25 µM |  |  |  |  | N[C@H]1CCCN(c2ccncc2NC(=O)c2cccc(-c3ccccc3)n2)C1 [Example 487, 6-Phenyl-pyridine-2-carboxylic acid (3-amino-3,4,5,6-tetrahydro-2H-[1,4′]bipyridinyl-3′-yl)-amide] |
| < 1 µM | < 1 µM | < 1 µM | 10 to 25 µM |  |  |  |  | Nc1cc(F)c(-c2c(F)ccc(OCc3ccccc3)c2F)nc1C(=O)Nc1cnccc1N1CCC[C@H](N)C1 [Example 505, 3-Amino-6-(3-benzyloxy-2,6-difluoro-phenyl)-5-fluoro-pyridine-2-carboxylic acid (3-amino-3,4,5,6-tetrahydro-2H-[1,4′]bipyridinyl-3′-yl)-amide] |
|  |  |  |  | > 25 µM | < 1 µM | < 1 µM | < 1 µM | Nc1ncc(-c2ccccc2C(F)(F)F)nc1C(=O)Nc1[nH]c(=O)ncc1N1CCCCC1 [Example 593, 3-amino-6-(2-trifluoromethyl-phenyl)-pyrazine-2-carboxylic acid (2-oxo-5-piperidin-1-yl-2,3-dihydro-pyrimidin-4-yl)-amide] |
|  |  |  |  | > 25 µM | < 1 µM | < 1 µM | < 1 µM | COc1ccccc1-c1cnc(N)c(C(=O)Nc2[nH]c(=O)ncc2N2CCCCC2)n1 [Example 594, 3-amino-6-(2-methoxy-phenyl)-pyrazine-2-carboxylic acid (2-oxo-5-piperidin-1-yl-2,3-dihydro-pyrimidin-4-yl)-amide] |
|  |  |  |  | > 25 µM | < 1 µM | < 1 µM | < 1 µM | Nc1ncc(-c2ccccc2Cl)nc1C(=O)Nc1[nH]c(=O)ncc1N1CCCCC1 [Example 595, 3-amino-6-(2-chloro-phenyl)-pyrazine-2-carboxylic acid (2-oxo-5-piperidin-1-yl-2,3-dihydro-pyrimidin-4-yl)-amide] |
|  |  |  |  | > 25 µM | < 1 µM | < 1 µM | < 1 µM | Nc1ncc(-c2ccccc2OC(F)(F)F)nc1C(=O)Nc1[nH]c(=O)ncc1N1CCCCC1 [Example 596, 3-amino-6-(2-trifluoromethoxy-phenyl)-pyrazine-2-carboxylic acid (2-oxo-5-piperidin-1-yl-2,3-dihydro-pyrimidin-4-yl)-amide] |

Continued, compound first:

| Structure (SMILES) | IC50 (Pim1 kinase; read-out: IC50 (μM) PIM1) | IC50 (Pim2 kinase; read-out: IC50 (μM) PIM2) | IC50 (Pim3 kinase; read-out: IC50 (μM) PIM3) | IC50 (KDR kinase) | IC50 [1] | IC50 (Pim1 kinase; read-out: PIM1 IC50) | IC50 (Pim2 kinase; read-out: PIM2 IC50) | IC50 (Pim3 kinase; read-out: PIM3 IC50) |
| --- | --- | --- | --- | --- | --- | --- | --- | --- |
| CC(C)NC(=O)c1ccc(F)c(-c2ccc(N)c(C(=O)Nc3cnccc3N3CCCC(O)(C(F)(F)F)C3)n2)c1 (stereo not drawn) [Example 163, 3-Amino-6-(2-fluoro-5-isopropylcarbamoyl-phenyl)-pyridine-2-carboxylic acid (3-hydroxy-3-trifluoromethyl-3,4,5,6-tetrahydro-2H-[1,4′]bi-pyridinyl-3′-yl)-amide] | < 1 µM | < 1 µM | < 1 µM | 10 to 25 µM |  |  |  |  |
| Nc1ccc(-c2ccccc2F)nc1C(=O)Nc1cnccc1N1CCCC(O)(C(F)(F)F)C1 (stereo not drawn) [Example 164, 3-Amino-6-(2-fluoro-phenyl)-pyridine-2-carboxylic acid (3-hydroxy-3-trifluoromethyl-3,4,5,6-tetrahydro-2H-[1,4′]bi-pyridinyl-3′-yl)-amide] | < 1 µM | < 1 µM | < 1 µM | 10 to 25 µM |  |  |  |  |
| Nc1cnc(-c2c(F)cccc2F)nc1C(=O)Nc1cnccc1N1CCCC(O)(C(F)(F)F)C1 (stereo not drawn) [Example 165, 5-Amino-2-(2,6-difluoro-phenyl)-pyrimidine-4-carboxylic acid (3-hydroxy-3-trifluoromethyl-3,4,5,6-tetra-hydro-2H-[1,4′]bipyridinyl-3′-yl)-amide] | < 1 µM | < 1 µM | < 1 µM | 10 to 25 µM |  |  |  |  |
| Nc1cnc(-c2ccccc2F)nc1C(=O)Nc1cnccc1N1CCCC(O)(C(F)(F)F)C1 (stereo not drawn) [Example 166, 5-Amino-2-(2-fluoro-phenyl)-pyrimidine-4-carboxylic acid (3-hydroxy-3-trifluoromethyl-3,4,5,6-tetrahydro-2H-[1,4′]bi-pyridinyl-3′-yl)-amide] | < 1 µM | < 1 µM | < 1 µM | 10 to 25 µM |  |  |  |  |
| N[C@H]1CCCN(c2ccncc2NC(=O)c2ccnc(-c3c(F)cccc3F)n2)C1 [Example 249, N-{4-[(3S)-3-aminopiperidin-1-yl]pyridin-3-yl}-2-(2,6-difluorophenyl)pyrimidine-4-carboxamide N-{4-[(3S)-3-aminopiperidin-1-yl]pyridin-3-yl}-2-(2,6-difluorophenyl)-pyrimidine-4-carboxamide] | < 1 µM | < 1 µM | < 1 µM | 10 to 25 µM |  |  |  |  |
| CC1(N)CCCN(c2ccncc2NC(=O)c2nc(-c3ccccc3)ncc2N)C1 (stereo not drawn) [Example 261, 5-Amino-2-phenyl-pyrimidine-4-carboxylic acid (3-amino-3-methyl-3,4,5,6-tetrahydro-2H-[1,4′]bipyridinyl-3′-yl)-amide] | < 1 µM | < 1 µM | < 1 µM | 1 to 10 µM |  |  |  |  |
| Nc1cc(-c2ccccc2)cnc1C(=O)Nc1cnccc1N1CCC[C@H](N)C1 [Example 264, 3-Amino-5-phenyl-pyridine-2-carboxylic acid (3-amino-3,4,5,6-tetrahydro-2H-[1,4′]bipyridinyl-3′-yl)-amide] | < 1 µM | < 1 µM | < 1 µM | < 1 µM |  |  |  |  |
| Nc1cnc(-c2ccccc2)nc1C(=O)Nc1cnccc1N1CCC[C@H](N)C1 [Example 265, 5-Amino-2-phenyl-pyrimidine-4-carboxylic acid (3-amino-3,4,5,6-tetrahydro-2H-[1,4′]bipyridinyl-3′-yl)-amide] | < 1 µM | < 1 µM | < 1 µM | 10 to 25 µM |  |  |  |  |
| Cc1nc(N)cc(-c2ccncc2NC(=O)c2nc(-c3ccccc3)ncc2N)n1 [Example 268, 5-Amino-2-phenyl-pyrimidine-4-carboxylic acid [4-(6-amino-2-methyl-pyrimidin-4-yl)-pyridin-3-yl]-amide] | < 1 µM | < 1 µM | < 1 µM | 1 to 10 µM |  |  |  |  |
| CSc1nc(N)cc(-c2ccncc2NC(=O)c2nc(-c3c(F)cccc3F)ccc2N)n1 [Example 275, 3-Amino-6-(2,6-difluoro-phenyl)-pyridine-2-carboxylic acid [4-(6-amino-2-methylsulfanyl-pyrimidin-4-yl)-pyridin-3-yl]-amide] | < 1 µM | < 1 µM | < 1 µM | 10 to 25 µM |  |  |  |  |
| N#Cc1ccccc1-c1cnc(N)c(C(=O)Nc2[nH]c(=O)ncc2N2CCCC(N)C2)n1 (stereo not drawn) [Example 403, 3-amino-6-(2-cyano-phenyl)-pyrazine-2-carboxylic acid [5-(3-amino-piperidin-1-yl)-2-oxo-2,3-dihydro-pyrimidin-4-yl]-amide] | < 1 µM | < 1 µM | < 1 µM |  | < 1 µM |  |  |  |
| Nc1ncc(-c2ccccc2C(F)(F)F)nc1C(=O)Nc1[nH]c(=O)ncc1N1CCCC(N)C1 (stereo not drawn) [Example 404, 3-amino-6-(2-trifluoromethyl-phenyl)-pyrazine-2-carboxylic acid [5-(3-amino-piperidin-1-yl)-2-oxo-2,3-dihydro-pyrimidin-4-yl]-amide] | < 1 µM | < 1 µM | < 1 µM |  | 1 to 10 µM |  |  |  |
